11 molecules from ChEMBL document CHEMBL1201862, “PubChem BioAssay data set” (2004) can be followed below.

Common to all, as to assay: NCI-60 cell line screen, 48 h
The subject of assay [1] is SW-620.
The test system of assay [2] is OVCAR-5.
In assay [3] the test system is A549.
Assay [4] deals with NCI/ADR-RES.
The subject of assay [5] is HCT-15.
For assay [6], the system named is EKVX.
For assay [7], the system named is NCI-H23.
For assay [8], the system named is SN12C.
Assay [9] has as its system 786-0.
The subject of assay [10] is MDA-N.
Assay [11] relates to HOP-92.
For assay [12], the system named is SF-268.
In assay [13] the test system is KM12.
The subject of assay [14] is SF-295.
Assay [15] has as its system HCT-116.
The subject of assay [16] is SR.
For assay [17], the system named is NCI-H522.
The subject of assay [18] is Hs-578T.
The test system of assay [19] is MDA-MB-231.
For assay [20], the system named is M14.

Structures are written as SMILES. Several values for one entry are separate records, joined by “and”; a condition that tells them apart may be missing. Equal entries are not always repeated.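 Compound exposure: 48 hours, 5 concentrations, 96-well plates. At the GI50, growth is halved.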 Activity calls are given as the source filed them. Rule as the data show it: active = GI50 up to about 1.1 µM and inactive = higher. A value given as a limit tells only on which side of the number the result lay.

On to `O=C(OCC1OC(c2nn[nH]n2)C(OC(=O)c2ccccc2)C1OC(=O)c1ccccc1)c1ccccc1` (configuration not stated), for which the GI50 in [1] was > 100 µM (inactive); in assay [2] it was > 100 µM (inactive); in assay [3] it was > 100 µM (inactive); in assay [4], > 100 µM (inactive); in [5] it was more than 100 µM; in [6] it was 66.1 µM (inactive). The GI50 in assay [7] was > 100 µM (inactive); in assay [8] it was > 100 µM (inactive); in assay [9], > 100 µM (inactive); in assay [10], > 100 µM (inactive); in assay [11], > 100 µM (inactive); in [12], 76.7 µM (inactive). The GI50 in [13] was 67.6 µM (inactive); in [14], > 100 µM (inactive); in [15], > 100 µM (inactive).

Regarding `CCOC(=O)c1c(N2CCOCC2)[nH]c(=O)c(C(c2ccc(N(C)C)cc2)c2c(O)c(C(=O)OCC)c(N3CCOCC3)[nH]c2=O)c1O`, the GI50 in [16], in assay [17], in [1], in assay [2], in [3] and in assay [4] was > 100 µM (inactive) throughout. The GI50 in assay [5] is more than 100 µM; in assay [6], > 100 µM (inactive); in [18], > 100 µM (inactive); in [7], > 100 µM (inactive); in assay [8] it was > 100 µM (inactive); in assay [9], > 100 µM (inactive). The GI50 in assay [19], in [20], in assay [11], in assay [12], in assay [13] and in assay [14] was > 100 µM (inactive) each time. Besides, in assay [15], the GI50 is > 100 µM (inactive).

For `O=[N+]([O-])c1ccccc1CSc1nc(O)c2nc[nH]c2n1`, the GI50 is > 100 µM (inactive) in [16]; > 100 µM (inactive) and 58.7 µM (inactive) in [17]; > 100 µM (inactive) in [1]; > 100 µM (inactive) and 92 µM (inactive) in assay [2]; > 100 µM (inactive) in assay [3]; > 100 µM (inactive) in assay [4]. The GI50 was more than 100 µM in [5]; 51.8 µM (inactive) in assay [6]; 52.4 µM (inactive) in [18]; > 100 µM (inactive) in assay [7]; > 100 µM (inactive) and 66.4 µM (inactive) in assay [8]; > 100 µM (inactive) in assay [9]. The GI50 was > 100 µM (inactive) in assay [10]; 61.9 µM (inactive) in [20]; > 100 µM (inactive) in assay [11]; > 100 µM (inactive) in [12]; > 100 µM (inactive) in assay [13]; > 100 µM (inactive) and 99.8 µM (inactive) in [14]. Besides, in assay [15], the GI50 is > 100 µM (inactive).

For the molecule `CC1=NN(C(=O)c2ccccc2O)C(=O)/C1=C/c1cccc([N+](=O)[O-])c1`, the GI50 is > 100 µM (inactive) in assay [16]; 3.99 µM (inactive) in assay [17]; 3.44 µM (inactive) in assay [1]; 10.4 µM (inactive) in assay [2]; 0.448 µM (active) in assay [3]; 6.81 µM (inactive) in [4]. For the same molecule, the GI50 was 4.05 µM in assay [5]; 3.99 µM (inactive) in [6]; 0.753 µM (active) in assay [7]; 3.01 µM (inactive) in assay [8]; 2.47 µM (inactive) in [9]; 0.608 µM (active) in assay [10]. The GI50 in assay [19] was 41.8 µM (inactive); in assay [20], 2.37 µM (inactive); in [11], 1.27 µM (inactive); in assay [12] it was 1.25 µM (inactive); in assay [13] it was 0.703 µM (active); in assay [14], 0.507 µM (active). Further, in assay [15], the GI50 is 0.463 µM (active).

`CC[C@H]1C[C@@H](O)[C@@H]2[C@H](O)[C@H](O)CN2C1`: the GI50 is > 100 µM (inactive) in assay [17]; > 100 µM (inactive) in [1]; > 100 µM (inactive) in assay [2]; > 100 µM (inactive) in assay [3]; > 100 µM (inactive) in assay [4]; more than 100 µM in assay [5]. In addition, the GI50 in assay [6], in assay [18], in assay [8], in [9], in assay [10] and in [20] was > 100 µM (inactive) throughout. For the same molecule, the GI50 in assay [11], in [12], in assay [13], in assay [14] and in assay [15] was > 100 µM (inactive) each time.

Turning to `O=C1C=CC(=NNc2ccccc2)C=CC1=O`, the GI50 is 1.72 µM (inactive) in assay [16]; 13.1 µM (inactive) in assay [17]; 6.58 µM (inactive) in [1]; 20.8 µM (inactive) in assay [2]; 10.7 µM (inactive) in assay [3]; 11.6 µM (inactive) in [4]. Besides, the GI50 is 5.83 µM in assay [5]; 25.9 µM (inactive) in assay [6]; 11 µM (inactive) in assay [18]; 14 µM (inactive) in assay [7]; 16.7 µM (inactive) in assay [8]; 18.4 µM (inactive) in assay [9]. The GI50 in assay [19] was 14.9 µM (inactive); in assay [20], 12.9 µM (inactive); in assay [11] it was 17.5 µM (inactive); in [12] it was 16.3 µM (inactive); in assay [13], 12.4 µM (inactive); in assay [14], 6.85 µM (inactive). The GI50 in assay [15] is 13.3 µM (inactive).

For the molecule `Cc1cc2ccccc2n2c1nc1ccc(O)cc12`, the GI50 in assay [16] was 9.73 µM (inactive); in [17], 9.04 µM (inactive); in [1] it was > 10 µM (inactive); in assay [2], > 10 µM (inactive); in assay [3], > 10 µM (inactive); in assay [4] it was > 10 µM (inactive). For the same molecule, the GI50 in assay [5] is more than 10 µM; in [6], > 10 µM (inactive); in [18], > 10 µM (inactive); in assay [7], > 10 µM (inactive); in [8] it was 9.35 µM (inactive); in assay [9], > 10 µM (inactive). Also, the GI50 in assay [19], in assay [20], in assay [12], in [13], in assay [14] and in [15] was > 10 µM (inactive) throughout.

As to `CN(C)CC1CCC(CN(C)C)C(=O)C1=O` (configuration not stated), the GI50 in [16] is 2.09 µM (inactive); in assay [17], 0.946 µM (active); in [1], 1.83 µM (inactive); in assay [2], 16.5 µM (inactive); in [3] it was 10.9 µM (inactive); in assay [5], 3 µM. Further, the GI50 in assay [6] is 17.3 µM (inactive); in [7], 14.6 µM (inactive); in [8] it was 18.4 µM (inactive); in [9], 5.14 µM (inactive); in [10] it was > 10 µM (inactive); in assay [19], 6.22 µM (inactive). Further, the GI50 was 5.52 µM (inactive) in assay [20]; 1.99 µM (inactive) in assay [11]; 6.75 µM (inactive) in assay [12]; 14.2 µM (inactive) in [13]; 16.6 µM (inactive) in assay [14]; 2.4 µM (inactive) in assay [15].

Turning to `Cc1ccc2nc(-c3ccc(N)c(I)c3)sc2c1`, the GI50 in [16] is 4.2 µM (inactive); in assay [17], 18 µM (inactive); in assay [1] it was 20.9 µM (inactive); in assay [2], 35.9 µM (inactive); in assay [3] it was 15.2 µM (inactive); in assay [4], 72.3 µM (inactive). For the same molecule, the GI50 in [5] was 6.11 µM; in [6], 29 µM (inactive); in assay [18], 31 µM (inactive); in assay [9] it was 15.8 µM (inactive); in assay [19], 14.3 µM (inactive); in [20] it was 37.1 µM (inactive). Further, the GI50 in [11] was 20.1 µM (inactive); in [12], 23.2 µM (inactive); in [13], 5.87 µM (inactive); in assay [14], 19.1 µM (inactive); in assay [15], 54.6 µM (inactive).

Take `ClCc1nc2ccccc2[nH]1`: the GI50 in assay [16] is 56 µM (inactive); in assay [17], > 100 µM (inactive); in assay [1], > 100 µM (inactive); in assay [2] it was > 100 µM (inactive); in [3], > 100 µM (inactive); in assay [4] it was > 100 µM (inactive). For the same molecule, the GI50 in assay [5] is more than 100 µM; in [6] it was > 100 µM (inactive); in [18], > 100 µM (inactive); in assay [7], > 100 µM (inactive); in [8] it was > 100 µM (inactive); in assay [9], > 100 µM (inactive). In addition, the GI50 in [19], in assay [20], in assay [11], in [12], in assay [13] and in assay [14] was > 100 µM (inactive) throughout. Moreover, the GI50 in [15] is > 100 µM (inactive).

With `CCOP(=O)(/C=C\n1ccc(=O)[nH]c1=O)OCC`, the GI50 is > 100 µM (inactive) in assay [17]; > 100 µM (inactive) in assay [1]; > 100 µM (inactive) in assay [2]; > 100 µM (inactive) in [3]; > 100 µM (inactive) in [4]; more than 100 µM in assay [5]. For the same molecule, the GI50 in [6], in assay [7], in assay [8], in assay [9], in assay [10] and in assay [19] was > 100 µM (inactive) each time. In addition, the GI50 in assay [20], in [12], in [13], in [14] and in [15] was > 100 µM (inactive) in each case.
